Consider two substances from patent EP1313763B1, “METHOD FOR THE EXTRACTION AND THE USE OF ANTI[…] PEPTIDES FOR TREATING INFECTIOUS DISEASES” (IPF Pharmaceuticals GmbH, priority 2000, dated 2001).

Assay [1] deals with Micrococcus luteus ATCC 9341. Put plainly: Minimal inhibitory concentration (MIC) determination. To be noted: incubation 18 ± 2 h, chemically synthesized peptides.
Method: (§2) Die antimikrobielle Aktivität der erfindungsgemäßen Peptide wurde unter Anwendung der Bestimmung der minimalen Hemmstoffkonzentration (MIC) gegen verschiedene Keime, wie Gram-positive und Gram-negative Bakterien und Hefen, untersucht. Die minimale Hemmstoffkonzentration bezeichnet die Peptidkonzentration, die minimal erforderlich ist, um das Wachstum von Mikroorganismen nach einer Inkubationszeit von 18 ± 2 h vollständig zu hemmen.
Assay [2] concerns Pseudomonas aeruginosa clinical isolate. The description is as above. Particulars: incubation 18 ± 2 h, chemically synthesized peptides.
Method: as §2
Assay [3] has as its system Bacillus subtilis ATCC 6051. Described as above. To be noted: incubation 18 ± 2 h, chemically synthesized peptides.
Method: as §2
For assay [4], the system named is Saccharomyces cerevisiae ATCC 9763. The description is as above. Particulars: incubation 18 ± 2 h, chemically synthesized peptides.
Method: as §2
The next assay relates to E. coli. In words: Radial diffusion inhibition test of HPLC fractions. The assay is classed as cell-based, Escherichia coli. Particulars: pure peptide in purified HPLC fraction from tissue extract; E. coli in agarose, 37 °C, 16 h.
Source text: (§1) Für die Reinigung von antimikrobiellen Peptiden aus Plazentaextrakt können verschiedene HPLC Trennverfahren kombiniert werden, um eine möglichst reine Darstellung über eine optimale Trennung zu erzielen und inaktive, unerwünschte Bestandteile abzutrennen. Die jeweiligen Proben, die nach jedem Trennungsschritt entstehen, werden auf ihre antimikrobielle Aktivität gegen Escherichla coli mit Hilfe des Radial-DifFusions-Hemmtests untersucht (siehe Beispiel 3). Notwendig für die Reinigung ist die Kombination von mindestens zwei Reverse Phase Chromatographieschritten und der Einsatz einer Kationenaustausch-HPLC-Trennung. In dem Biotest sollte die jeweilige Probe salzarm eingesetzt werden, um ein möglichst optimales Screeningergebnis zu erhalten.
as §1, with “Thymusextrakt” for “Plazentaextrakt”, “Escherichia” for “Escherichla”, “Radial-Diffusions-Hemmtests” for “Radial-DifFusions-Hemmtests”, “2). Empfehlenswert” for “3). Notwendig”, “In dem Biotest sollte die jeweilige Probe salzarm eingesetzt werden, um ein möglichst optimales Screeningergebnis zu erhalten.” left out

For assay [5], the system named is Staphylococcus carnosus TM 300. In words: Minimal inhibitory concentration (MIC) determination. To be noted: incubation 18 ± 2 h, chemically synthesized peptides.
Method: as §2
Assay [6] deals with Escherichia coli BL21 (DE3). The description is as above. To be noted: incubation 18 ± 2 h, chemically synthesized peptides.
Method: as §2
For assay [7], the system named is Escherichia coli ATTC 25922. The assay is described as above. To be noted: incubation 18 ± 2 h, chemically synthesized peptides.
Source text: (§3) Dabei werden als Testmikroorganismen entweder Staphylococcus aureus oder Escherichia coli verwendet, je nachdem, bei welchem Mikroorganismus das Peptid bessere Wirksamkeit hat. Die Bakterien sind wie folgt charakterisiert: • Staphylococcous aureus: Gram-positive Kokken, ATCC 25923 • Escherichia coll: Gram-negative Stäbchen, ATCC 25922
(§4) Die antimikrobielle Aktivität der erfindungsgemäßen Peptide wurde unter Anwendung der Bestimmung der minimalen Hemmstoffkonzentration (MIC) gegen verschiedene Keime, wie Gram-positive und Gram-negative Bakterien und Hefen, untersucht. Die minimale Hemmstoffkonzentration bezeichnet die Peptidkonzentration, die minimal erforderlich ist, um das Wachstum von Mikroorganismen nach einer Inkubationszeit von 18 ± 2 h vollständig zu hemmen. Diese Quantifizierung der antimikrobiellen Aktivität ist mit chemisch synthetisierten Peptiden (Peptidsequenzen 1-5) gegen nicht pathogene sowie human pathogene Erreger durchgeführt worden.
In assay [8] the test system is Klebsiella pneumoniae ATCC 10031. The assay is described as above. To be noted: incubation 18 ± 2 h, chemically synthesized peptides.
Method: as §2
The subject of assay [9] is Staphylococcus aureus ATTC 25923. The assay is described as above. Particulars: incubation 18 ± 2 h, chemically synthesized peptides.
Source text: as §3, §4

On to hGAPDH-1-31 [Peptide 2], for which the “minimale Hemmkonzentration (MIC)” value in assay [1] is 31.25 mg/L; in assay [2] it was 31.25 mg/L; in [3], 7.8 mg/L; in assay [4], 100 mg/L; in [5], 12.5 mg/L; in assay [6] it was 7.8 mg/L. The “antimikrobielle Aktivität” value in the assay with E. coli is on record as “antimikrobiell wirksame”.
On to hHEM-g-130-146 [Peptide 1], for which the “minimale Hemmkonzentration (MIC)” value was 200 mg/L in assay [7]; 200 mg/L in assay [1]; > 200 mg/L in assay [2]; 300 mg/L in [8]; 100 mg/L in [3]; 100 mg/L in assay [4]. In addition, the “minimale Hemmkonzentration (MIC)” value amounted to 200 mg/L in [9], 100 mg/L in assay [5] and 100 mg/L in [6]. In the assay with E. coli, the “antimikrobielle Aktivität” value is on record as “antimikrobiell wirksame”.
